Laboratory results reported in ChEMBL document CHEMBL6074715, “Discovery of pyridine-based derivatives as FLT3 inhibitors for the treatment of acute myeloid leukemia” (Eur J Med Chem, 2025).

Test: AUC (0 to t) in Sprague-Dawley rat at 5 mg/kg, iv measured upto 48 hrs by LC-MS/MS analysis
Type: ADME, organism-based
Conditions: in vivo

AUC(0-t) at 48 h: 59300 ng·h/mL
Structure (SMILES): O=C(Nc1ccc(Oc2ccnc(NC(=O)N3CC(O)C3)c2)c(F)c1)c1cn(-c2cccnc2)nn1
